Assays:
[1] = target: T1, Peroxisome proliferator-activated receptor gamma (Homo sapiens, UniProt P37231); assay: Agonist activity at human PPARgamma expressed in HEK293 cells assessed as luciferase activity by GAL4 transactivation assay; format: functional, cell-based
T1 sequence (P37231 whole entry): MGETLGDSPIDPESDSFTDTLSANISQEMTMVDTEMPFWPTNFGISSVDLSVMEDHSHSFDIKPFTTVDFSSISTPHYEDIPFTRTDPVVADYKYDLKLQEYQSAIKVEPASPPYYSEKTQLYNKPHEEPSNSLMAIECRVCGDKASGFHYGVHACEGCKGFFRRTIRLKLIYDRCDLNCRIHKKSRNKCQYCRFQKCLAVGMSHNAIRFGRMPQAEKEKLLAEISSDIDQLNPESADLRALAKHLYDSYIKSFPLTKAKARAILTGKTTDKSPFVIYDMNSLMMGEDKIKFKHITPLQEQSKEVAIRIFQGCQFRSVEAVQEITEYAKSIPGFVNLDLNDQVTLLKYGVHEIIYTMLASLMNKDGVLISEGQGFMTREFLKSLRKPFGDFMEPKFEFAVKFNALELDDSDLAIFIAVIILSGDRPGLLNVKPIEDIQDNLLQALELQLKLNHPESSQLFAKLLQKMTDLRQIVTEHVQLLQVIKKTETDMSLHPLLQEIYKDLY

[2] = target: T2, Peroxisome proliferator-activated receptor alpha (Homo sapiens, UniProt Q07869); assay: Agonist activity at human PPARalpha expressed in HEK293 cells assessed as luciferase activity by GAL4 transactivation assay; format: functional, cell-based
T2 sequence (Q07869 whole entry): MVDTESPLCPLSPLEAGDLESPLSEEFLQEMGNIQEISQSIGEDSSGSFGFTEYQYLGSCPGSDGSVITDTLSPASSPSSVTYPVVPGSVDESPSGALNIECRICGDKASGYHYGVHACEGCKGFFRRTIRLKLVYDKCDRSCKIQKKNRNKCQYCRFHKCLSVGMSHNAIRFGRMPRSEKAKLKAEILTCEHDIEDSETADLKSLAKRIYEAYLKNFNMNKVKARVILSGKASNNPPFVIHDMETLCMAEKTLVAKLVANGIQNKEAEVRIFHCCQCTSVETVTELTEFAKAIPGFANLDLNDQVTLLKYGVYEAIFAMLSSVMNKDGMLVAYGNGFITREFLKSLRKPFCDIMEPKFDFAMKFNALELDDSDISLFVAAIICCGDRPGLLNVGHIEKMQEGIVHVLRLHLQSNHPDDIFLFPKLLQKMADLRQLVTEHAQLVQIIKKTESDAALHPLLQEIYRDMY

[3] = target: Peroxisome proliferator-activated receptor gamma (Homo sapiens) (UniProt P37231); assay: Binding affinity at human PPARgamma by fluorescence polarization
[4] = target: Peroxisome proliferator-activated receptor alpha (Homo sapiens) (UniProt Q07869); assay: Binding affinity at human PPARalpha by fluorescence polarization

Row | Compound | EC50 [1] [nM] | EC50 [2] [nM] | IC50 [3] [nM] | IC50 [4] [nM]
1 | CCCOC(=O)N1CCC(C(=O)O)=C(Cc2cccc(OCCc3nc(-c4ccccc4)oc3C)c2)C1 | 180 |  |  | 
2 | Cc1oc(-c2ccccc2)nc1CCOc1cccc(C2=C(CC(=O)O)CCN(C(=O)Oc3ccccc3)C2)c1 | 46 | 4 | 34 | 16
3 | Cc1oc(-c2ccccc2)nc1CCOc1cccc(CC2=C(C(=O)O)CCN(C(=O)OCc3ccccc3)C2)c1 | > 3500 | 4920 | 4730 | > 15000
4 | Cc1oc(-c2ccccc2)nc1CCOc1ccc(CC2CN(C(=O)OCC(C)C)CCC2C(=O)O)cc1 (racemic) | 257 | 5 | 1250 | 215
5 | Cc1oc(-c2ccccc2)nc1CCOc1cccc(C2CN(C(=O)OCC(C)C)CCC2CC(=O)O)c1 (racemic) | 490 | 580 | 3090 | > 15000
6 | Cc1oc(-c2ccccc2)nc1CCOc1cccc(CC2=CN(c3nccc(C(F)(F)F)n3)CCC2C(=O)O)c1 (racemic) | 14 | 23 | 287 | 1080
7 | Cc1oc(-c2ccccc2)nc1CCOc1cccc(CC2CN(C(=O)OCC(C)C)CCC2C(=O)O)c1 (racemic) | 1070 | 18 | 6030 | 1370
8 | Cc1oc(-c2ccccc2)nc1CCOc1ccc(C2=C(C(=O)O)CCN(C(=O)OCC(C)C)C2)cc1 | 4650 | 5570 | 7400 | > 27300
9 | Cc1oc(-c2ccccc2)nc1CCOc1cccc(C2=C(C(=O)O)CCN(Cc3ccccc3)C2)c1 | > 7500 | > 7500 | > 27500 | > 27500
10 | Cc1oc(-c2ccccc2)nc1CCOc1ccc(CCC2CN(C(=O)OCC(C)C)CCC2C(=O)O)cc1 (racemic) | 263 | 44 | 450 | 711
11 | Cc1oc(-c2ccccc2)nc1CCOc1cccc(C2CN(C(=O)Oc3ccccc3)CCC2CC(=O)O)c1 (racemic) | 1290 | 170 | 7690 | 8120
12 | Cc1oc(-c2ccccc2)nc1CCOc1cccc(CC2=CN(C(=O)OCc3ccccc3)CCC2C(=O)O)c1 (racemic) | 24 | 16 | 133 | 654
13 | Cc1oc(-c2ccccc2)nc1CCOc1cccc(C2CN(C(=O)OCC(C)C)CCC2C(=O)O)c1 (racemic) | > 7500 | 209 | > 27300 | 7620
14 | COc1ccc(OC(=O)N(CC(=O)O)Cc2ccc(OCCc3nc(-c4ccccc4)oc3C)cc2)cc1 [MURAGLITAZAR] |  | 1410 |  | 
15 | Cc1oc(-c2ccccc2)nc1CCOc1ccc(CCC2=C(C(=O)O)CCN(C(=O)OCC(C)C)C2)cc1 | 74 | 56 | 110 | 255
16 | Cc1oc(-c2ccccc2)nc1CCOc1cccc(C2=C(CC(=O)O)CCN(C(=O)OCC(C)C)C2)c1 | 18 | 6 | 49 | 130
17 | Cc1oc(-c2ccccc2)nc1CCOc1cccc(CC2=C(C(=O)O)CCN(c3nccc(C(F)(F)F)n3)C2)c1 | 644 | 89 | 1380 | 1330
18 | Cc1oc(-c2ccccc2)nc1CCOc1ccc(CC2=C(C(=O)O)CCN(C(=O)OCC(C)C)C2)cc1 | 1120 | 28 | 3040 | 1170
19 | Cc1oc(-c2ccccc2)nc1CCOc1ccc(C[C@@H]2CN(c3nccc(C(F)(F)F)n3)C[C@@H]2C(=O)O)cc1 | 7 | 165 |  | 
